# Patent publication US20170233413A1, “SUBSTITUTED ANNULATED PYRIMIDINES AND USE THEREOF” (Bayer Pharma Aktiengesellschaft, priority 2014, published 2017)
# What was measured:
# [1] = target: T1, recombinant guanylate cyclase reporter cell line (Rattus norvegicus, UniProt P19686+P20595); test: Effect on a recombinant guanylate cyclase reporter cell line; type: cell-based; details: MEC = minimum effective concentration; in some cases means of individual determinations
# T1 construct: expressed in transfected cells
# T1 sequence (P19686 1-690): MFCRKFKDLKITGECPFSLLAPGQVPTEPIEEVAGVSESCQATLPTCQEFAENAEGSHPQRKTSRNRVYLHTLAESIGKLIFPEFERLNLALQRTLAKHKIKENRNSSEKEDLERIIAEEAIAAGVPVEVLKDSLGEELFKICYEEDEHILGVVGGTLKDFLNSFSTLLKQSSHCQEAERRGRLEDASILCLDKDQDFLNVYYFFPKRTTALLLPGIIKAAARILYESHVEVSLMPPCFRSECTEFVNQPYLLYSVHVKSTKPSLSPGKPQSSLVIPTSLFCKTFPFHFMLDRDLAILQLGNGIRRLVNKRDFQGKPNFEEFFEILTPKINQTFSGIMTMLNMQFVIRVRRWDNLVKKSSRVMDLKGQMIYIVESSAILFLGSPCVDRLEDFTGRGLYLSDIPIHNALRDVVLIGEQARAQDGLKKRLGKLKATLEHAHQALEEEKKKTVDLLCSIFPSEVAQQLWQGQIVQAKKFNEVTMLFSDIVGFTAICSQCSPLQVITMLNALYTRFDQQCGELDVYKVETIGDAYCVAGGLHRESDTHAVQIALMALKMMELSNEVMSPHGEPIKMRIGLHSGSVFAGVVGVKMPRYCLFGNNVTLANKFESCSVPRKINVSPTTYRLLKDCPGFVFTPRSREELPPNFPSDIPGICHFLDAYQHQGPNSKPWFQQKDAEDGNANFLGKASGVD
# T1 sequence (P20595 1-619): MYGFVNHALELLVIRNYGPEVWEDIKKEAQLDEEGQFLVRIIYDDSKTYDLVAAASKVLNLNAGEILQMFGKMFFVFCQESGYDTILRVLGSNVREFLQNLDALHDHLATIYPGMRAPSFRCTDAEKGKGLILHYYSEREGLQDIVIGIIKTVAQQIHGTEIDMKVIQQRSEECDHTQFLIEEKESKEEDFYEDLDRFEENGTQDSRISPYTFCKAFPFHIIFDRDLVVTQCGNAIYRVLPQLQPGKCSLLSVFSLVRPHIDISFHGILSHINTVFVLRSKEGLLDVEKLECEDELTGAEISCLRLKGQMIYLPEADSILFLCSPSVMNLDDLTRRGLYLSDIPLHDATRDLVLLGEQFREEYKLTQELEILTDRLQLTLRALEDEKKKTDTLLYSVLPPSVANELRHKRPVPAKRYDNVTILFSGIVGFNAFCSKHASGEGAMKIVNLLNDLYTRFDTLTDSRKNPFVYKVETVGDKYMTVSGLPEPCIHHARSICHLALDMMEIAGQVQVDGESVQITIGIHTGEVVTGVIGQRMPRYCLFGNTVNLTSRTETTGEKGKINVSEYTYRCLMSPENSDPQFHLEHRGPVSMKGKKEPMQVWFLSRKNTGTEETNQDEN
# How it was run: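 Cellular activity measured in a recombinant rat soluble guanylate cyclase reporter cell line. Values are minimum effective concentration (MEC), some given as means of individual determinations.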
# [2] = target: T2, human phosphodiesterase 5 (PDE 5) (Homo sapiens, UniProt O76074); test: Inhibition of human phosphodiesterase 5 (PDE 5); type: biochemical; details: PDE 5 preparation from human platelets; in some cases means of individual determinations
# T2 construct: PDE 5 preparations are obtained from human platelets by disruption; from tissue; host or cells: human platelets
# How it was run: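 Enzyme partially purified from human platelets by Mono Q ion exchange, diluted so that under 70% of substrate converts. [8-3H]cGMP at 0.025 μCi per well in Tris pH 7.5 with MgCl2/EDTA, 60 min at room temperature, yttrium SPA bead read-out. Final compound concentrations 4–0.0018 μM; IC50 from concentration–inhibition plot.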
MEC [1],IC50 [2],Compound
0.3 µM,58 nM,"Cc1nc2c(cc1F)c(-c1nc3c(c(C(N)=O)n1)C(C)(C(F)(F)F)C(=O)N3)nn2Cc1cccc(F)c1F (racemic) [Example 9, rac-2-[1-(2,3-difluorobenzyl)-5-fluoro-6-methyl-1H-pyrazolo[3,4-b]pyridin-3-yl]-5-methyl-6-oxo-5-(trifluoromethyl)-6,7-dihydro-5H-pyrrolo[2,3-d]pyrimidine-4-carboxamide]"
0.01 µM,770 nM,Cc1nc2c(cc1F)c(-c1nc3c(c(C(=O)N(C)CC4CC4)n1)C(C)(C)C(=O)N3)nn2Cc1cccc(F)c1F [Example 38]
0.3 µM,74 nM,"CC1(C)C(=O)Nc2nc(-c3nn(Cc4ccccc4F)c4cc(Cl)ccc34)nc(C(=O)NCC3CC3)c21 [Example 42, 2-[6-Chloro-1-(2-fluorobenzyl)-1H-indazol-3-yl]-N-(cyclopropylmethyl)-5,5-dimethyl-6-oxo-6,7-dihydro-5H-pyrrolo[2,3-d]pyrimidine-4-carboxamide]"
1 µM,46 nM,"CC1(C)C(=O)Nc2nc(-c3nn(Cc4ccccc4F)c4ncccc34)nc(C(=O)Nc3nccs3)c21 [Example 72, 2-[1-(2-fluorobenzyl)-1H-pyrazolo[3,4-b]pyridin-3-yl]-5,5-dimethyl-6-oxo-N-(1,3-thiazol-2-yl)-6,7-dihydro-5H-pyrrolo[2,3-d]pyrimidine-4-carboxamide]"
0.03 µM,93 nM,"CC(C)N(C)C(=O)c1nc(-c2nn(Cc3ccccc3F)c3ncccc23)nc2c1C(C)(C)C(=O)N2 [Example 112, 2-[1-(2-fluorobenzyl)-1H-pyrazolo[3,4-b]pyridin-3-yl]-N,5,5-trimethyl-6-oxo-N-(propan-2-yl)-6,7-dihydro-5H-pyrrolo[2,3-d]pyrimidine-4-carboxamide]"
0.3 µM,930 nM,CC1(C)C(=O)Nc2nc(-c3nn(Cc4ccccc4F)c4ncccc34)nc(C(=O)N3CCC(O)C3)c21 (stereo not drawn) [Example 26]
3 µM,73 nM,COCCNC(=O)c1nc(-c2nn(Cc3ncccc3F)c3ncc(F)cc23)nc2c1C(C)(C)C(=O)N2 [Example 36]
1 µM,77 nM,CC1(C)C(=O)Nc2nc(-c3nn(Cc4ncccc4F)c4ncc(F)cc34)nc(C(=O)NC(C3CC3)C3CC3)c21 [Example 34]
0.3 µM,110 nM,CC1(C)C(=O)Nc2nc(-c3nn(Cc4ccccc4F)c4cc(Cl)ccc34)nc(C(=O)NCC(F)(F)F)c21 [Example 44]
0.065 µM,88 nM,COCCNC(=O)c1nc(-c2nn(Cc3cccc(F)c3F)c3nc(C)c(F)cc23)nc2c1C(C)(C)C(=O)N2 [Example 41]
0.1 µM,15 nM,"CCCNC(=O)c1nc(-c2nn(Cc3ccccc3F)c3ncccc23)nc2c1C(C)(C)C(=O)N2 [Example 81, 2-[1-(2-fluorobenzyl)-1H-pyrazolo[3,4-b]pyridin-3-yl]-5,5-dimethyl-6-oxo-N-propyl-6,7-dihydro-5H-pyrrolo[2,3-d]pyrimidine-4-carboxamide]"
0.3 µM,73 nM,"CC1(C)C(=O)Nc2nc(-c3nn(Cc4ccccc4F)c4ncccc34)nc(C(=O)Nc3cncc(F)c3)c21 [Example 107, 2-[1-(2-fluorobenzyl)-1H-pyrazolo[3,4-b]pyridin-3-yl]-N-(5-fluoropyridin-3-yl)-5,5-dimethyl-6-oxo-6,7-dihydro-5H-pyrrolo[2,3-d]pyrimidine-4-carboxamide]"
0.03 µM,1200 nM,"CC1(C)C(=O)Nc2nc(-c3nn(Cc4ccccc4F)c4ncc(F)cc34)nc(C(=O)N3CCCC3)c21 (single isomer, unassigned) [Example 54]"
1 µM,21 nM,"CC1(C)C(=O)Nc2nc(-c3nn(Cc4ccccc4F)c4ncccc34)nc(C(=O)NCC3(O)CC3)c21 [Example 138, 2-[1-(2-fluorobenzyl)-1H-pyrazolo[3,4-b]pyridin-3-yl]-N-[(1-hydroxycyclopropyl)methyl]-5,5-dimethyl-6-oxo-6,7-dihydro-5H-pyrrolo[2,3-d]pyrimidine-4-carboxamide]"
0.1 µM,16 nM,"CSCCCNC(=O)c1nc(-c2nn(Cc3ccccc3F)c3ncccc23)nc2c1C(C)(C)C(=O)N2 [Example 61, 2-[1-(2-fluorobenzyl)-1H-pyrazolo[3,4-b]pyridin-3-yl]-5,5-dimethyl-N-[3-(methylsulfanyl)propyl]-6-oxo-6,7-dihydro-5H-pyrrolo[2,3-d]pyrimidine-4-carboxamide]"
0.1 µM,110 nM,CN(CC1CC1)C(=O)c1nc(-c2nn(Cc3ncccc3F)c3ncc(F)cc23)nc2c1C(C)(C)C(=O)N2 [Example 33]
1 µM,86 nM,"Cc1nc2c(cc1F)c(-c1nc3c(c(C(=O)NCC(C)(N)CC(F)F)n1)C(C)(C)C(=O)N3)nn2Cc1cccc(F)c1F (single isomer, unassigned) [Example 58]"
0.3 µM,10 nM,"Cc1ccncc1NC(=O)c1nc(-c2nn(Cc3ccccc3F)c3ncccc23)nc2c1C(C)(C)C(=O)N2 [Example 119, 2-[1-(2-fluorobenzyl)-1H-pyrazolo[3,4-b]pyridin-3-yl]-5,5-dimethyl-N-(4-methylpyridin-3-yl)-6-oxo-6,7-dihydro-5H-pyrrolo[2,3-d]pyrimidine-4-carboxamide]"
0.3 µM,38 nM,"CCCCCNC(=O)c1nc(-c2nn(Cc3ccccc3F)c3ncccc23)nc2c1C(C)(C)C(=O)N2 [Example 131, 2-[1-(2-Fluorobenzyl)-1H-pyrazolo[3,4-b]pyridin-3-yl]-5,5-dimethyl-6-oxo-N-pentyl-6,7-dihydro-5H-pyrrolo[2,3-d]pyrimidine-4-carboxamide]"
10 µM,220 nM,"Cc1nc2c(cc1F)c(-c1nc3c(c(C(N)=O)n1)C(C)(C(F)(F)F)C(=O)N3)nn2Cc1ncccc1F (single isomer, unassigned; ent-2) [Example 19, ent-2-{5-Fluoro-1-[(3-fluoropyridin-2-yl)methyl]-6-methyl-1H-pyrazolo[3,4-b]pyridin-3-yl}-5-methyl-6-oxo-5-(trifluoromethyl)-6,7-dihydro-5H-pyrrolo[2,3-d]pyrimidine-4-carboxamide (enantiomer A)]"
0.3 µM,10 nM,"CC1(CNC(=O)c2nc(-c3nn(Cc4ccccc4F)c4ncccc34)nc3c2C(C)(C)C(=O)N3)COC1 [Example 103, 2-[1-(2-fluorobenzyl)-1H-pyrazolo[3,4-b]pyridin-3-yl]-5,5-dimethyl-N-[(3-methyloxetan-3-yl)methyl]-6-oxo-6,7-dihydro-5H-pyrrolo[2,3-d]pyrimidine-4-carboxamide]"
0.065 µM,20 nM,"CC1(C)C(=O)Nc2nc(-c3nn(Cc4ccccc4F)c4ncccc34)nc(C(N)=O)c21 [Example 1, 2-[1-(2-Fluorobenzyl)-1H-pyrazolo[3,4-b]pyridin-3-yl]-5,5-dimethyl-6-oxo-6,7-dihydro-5H-pyrrolo[2,3-d]pyrimidine-4-carboxamide]"
0.1 µM,4 nM,Cc1nc2c(cc1F)c(-c1nc3c(c(C(=O)NC4CC4)n1)C(C)(C)C(=O)N3)nn2Cc1cccc(F)c1F [Example 37]
1 µM,12 nM,CC1(C)C(=O)Nc2nc(-c3nn(Cc4ncccc4F)c4ncc(F)cc34)nc(C(=O)NC3CC3)c21 [Example 32]
